Molecular target: T1, glucocorticoid receptor (Homo sapiens, UniProt P04150)
T1 construct: expressed in transfected cells
T1 sequence (P04150 524-758 limits assumed): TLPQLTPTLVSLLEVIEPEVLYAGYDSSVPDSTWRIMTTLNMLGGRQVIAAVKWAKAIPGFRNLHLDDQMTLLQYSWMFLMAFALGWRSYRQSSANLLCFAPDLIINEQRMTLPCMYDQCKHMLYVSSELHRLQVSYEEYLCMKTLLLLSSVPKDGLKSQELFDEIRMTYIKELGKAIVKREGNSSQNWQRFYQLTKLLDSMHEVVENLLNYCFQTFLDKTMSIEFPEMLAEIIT
Experiment: Agonistic mode of action on the glucocorticoid receptor (CHO-Gal4/GR luciferase reporter cell line)
Format: cell-based
Conditions: range class observed in the agonistic assay or the antagonistic assay (CHO-Gal4/GR reporter cells); table does not say which mode applies per example
How it was run: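 CHO cells stably carrying GAL4 DBD–GR ligand-binding-domain fusion and GAL4-UAS firefly luciferase reporter, 5000 cells/well grown 24 h, then compounds added in Opti-MEM at 8 half-log concentrations from 10 μM to 0.003 μM (0.5% DMSO), quadruplicates. Agonist-induced luminescence read on FLIPR Tetra; EC50 calculated.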

SMILES	IC50 or EC50 (agonist or antagonist mode not specified) [nM]
CCc1nnc2n1-c1c(cc(F)c(-c3cc(F)cc4c(C#N)c[nH]c34)c1F)NC2(C)C [Example 15, 7-(1-ethyl-7,9-difluoro-4,4-dimethyl-4,5-dihydro-[1,2,4]triazolo[4,3-a]quinoxalin-8-yl)-5-fluoro-1H-indole-3-carbonitrile]	1000 to 15000
COc1c(-c2cccc3[nH]ncc23)c(F)cc2c1-n1c(C)nnc1C(C)(C)N2 [Example 490, 7-Fluoro-8-(1H-indazol-4-yl)-9-methoxy-1,4,4-trimethyl-5H-[1,2,4]triazolo[4,3-a]quinoxaline]	100 to 1000
Cc1cc2c(c(C)c1-c1cccc3c(C)c[nH]c13)-n1c(C)nnc1C(C)(C)N2 [Example 356, 1,4,4,7,9-Pentamethyl-8-(3-methyl-1H-indol-7-yl)-5H-[1,2,4]triazolo[4,3-a]quinoxaline]	< 100
Cc1nnc2n1-c1c(cc(F)c(-c3cccc4c3ccn4CCNC(=O)C(C)(F)F)c1F)NC2(C)C [Example 229, N-[2-[4-(7,9-Difluoro-1,4,4-trimethyl-5H-[1,2,4]triazolo[4,3-a]quinoxalin-8-yl)-1H-indol-1-yl]-ethyl]-2,2-difluoro-propionamide]	1000 to 15000
Cc1nnc2n1-c1c(cc(F)c(-c3cc(F)cc4c3ccn4C3CC3)c1F)NC2(C)C [Example 2, 8-(1-cyclopropyl-6-fluoro-1H-indol-4-yl)-7,9-difluoro-1,4,4-trimethyl-4,5-dihydro-[1,2,4]triazolo[4,3-a]quinoxaline]	< 100
COc1c(-c2cc(F)cc3c(C)c[nH]c23)c(F)cc2c1-n1c(C)nnc1C(C)(C)N2 [Example 249, 7-Fluoro-8-(5-fluoro-3-methyl-1H-indol-7-yl)-9-methoxy-1,4,4-trimethyl-5H-[1,2,4]triazolo[4,3-a]quinoxaline]	< 100
Cc1c(-c2cccc3c(C4CCOC4)c[nH]c23)c(F)cc2c1-n1c(C)nnc1C(C)(C)N2 (stereo not drawn) [Example 42, 7-fluoro-1,4,4,9-tetramethyl-8-(3-(tetrahydrofuran-3-yl)-1H-indol-7-yl)-4,5-dihydro-[1,2,4]triazolo[4,3-a]quinoxaline]	< 100
Cc1nnc2n1-c1c(cc(F)c(-c3cccc4c3ccn4CC(F)F)c1C(F)F)NC2(C)C [Example 398, 8-[1-(2,2-Difluoro-ethyl)-1H-indol-4-yl]-9-(difluoro-methyl)-7-fluoro-1,4,4-trimethyl-5H-[1,2,4]triazolo [4,3-a]quinoxaline]	100 to 1000
CCc1nnc2n1-c1c(cc(F)c(-c3cccc4c(C#N)c[nH]c34)c1F)NC2(C)C [Example 12, 7-(T-ethyl-7,9-difluoro-4,4-dimethyl-4,5-dihydro-[1,2,4]triazolo[4,3-a]quinoxalin-8-yl)-1H-indole-3-carbonitrile]	1000 to 15000
COc1cc2c(c(C(F)(F)F)c1-c1cc(F)cc3c(C)c[nH]c13)-n1c(C)nnc1C(C)(C)N2 [Example 459, 8-(5-Fluoro-3-methyl-1H-indol-7-yl)-7-methoxy-1,4,4-trimethyl-9-(trifluoromethyl)-5H-[1,2,4]triazolo[4,3-a]quinoxaline]	< 100
Cc1nnc2n1-c1c(cc(F)c(-c3cc(F)cc4c3ccn4C)c1C(F)F)NC2(C)C [Example 521, 9-(Difluoro-methyl)-7-fluoro-8-(6-fluoro-1-methyl-1H-indol-4-yl)-1,4,4-trimethyl-5H-[1,2,4]triazolo [4,3-a]quinoxaline]	< 100
Cc1c(-c2cc(F)cc3c(C)c[nH]c23)c(Cl)cc2c1-n1c(C)nnc1C(C)(C)N2 [Example 363, 7-Chloro-8-(5-fluoro-3-methyl-1H-indol-7-yl)-1,4,4,9-tetramethyl-5H-[1,2,4]triazolo[4,3-a]quinoxaline]	< 100
Cc1c[nH]c2c(-c3ccc4c(c3C(F)(F)F)-n3c(C)nnc3C(C)(C)N4)cccc12 [Example 503, 1,4,4-Trimethyl-8-(3-methyl-1H-indol-7-yl)-9-(trifluoromethyl)-5H-[1,2,4]triazolo[4,3-a]quinoxaline]	100 to 1000
COc1cc(-c2c(F)cc3c(c2C(F)(F)F)-n2c(C)nnc2C(C)(C)N3)c2ccn(S(C)(=O)=O)c2c1 [Example 536, 7-Fluoro-8-(6-methoxy-1-methylsulfonyl-1H-indol-4-yl)-1,4,4-trimethyl-9-(trifluoro-methyl)-5H-[1,2,4]triazolo [4,3-a]quinoxaline]	100 to 1000
Cc1nnc2n1-c1c(cc(C(F)F)c(-c3cc(F)cc4c3ccn4S(C)(=O)=O)c1F)NC2(C)C [Example 298, 7-(Difluoro-methyl)-9-fluoro-8-(6-fluoro-1-methylsulfonyl-1H-indol-4-yl)-1,4,4-trimethyl-5H-[1,2,4]triazolo[4,3-a]quinoxaline]	1000 to 15000
Cc1cc2c(c(F)c1-c1cc(F)cc3c(C)c[nH]c13)-n1c(C)nnc1C(C)(C)N2 [Example 364, 9-Fluoro-8-(5-fluoro-3-methyl-1H-indol-7-yl)-1,4,4,7-tetramethyl-5H-[1,2,4]triazolo[4,3-a]quinoxaline]	100 to 1000
Cc1nnc2n1-c1c(cc(Cl)c(-c3cccc4c3ccn4S(C)(=O)=O)c1F)NC2(C)C [Example 284, 7-Chloro-9-fluoro-1,4,4-trimethyl-8-(1-methylsulfonyl-1H-indol-4-yl)-5H-[1,2,4]triazolo[4,3-a]quinoxaline]	100 to 1000
Cc1nnc2n1-c1c(cc(F)c(-c3cccc4c3ccn4CC3CC3)c1F)NC2(C)C [Example 202, 8-[1-(Cyclopropyl-methyl)-1H-indol-4-yl]-7,9-difluoro-1,4,4-trimethyl-5H-[1,2,4]triazolo[4,3-a]quinoxaline]	< 100
Cc1nnc2n1-c1c(cc(F)c(-c3cccc4c3ccn4CC(F)F)c1F)NC2(C)C [Example 253, 8-[1-(2,2-Difluoro-ethyl)-1H-indol-4-yl]-7,9-difluoro-1,4,4-trimethyl-5H-[1,2,4]triazolo[4,3-a]quinoxaline]	100 to 1000
COCCn1ccc2c(-c3c(OC)cc4c(c3F)-n3c(C)nnc3C(C)(C)N4)cc(F)cc21 [Example 353, 9-Fluoro-8-[6-fluoro-1-(2-methoxy-ethyl)-1H-indol-4-yl]-7-methoxy-1,4,4-trimethyl-5H-[1,2,4]triazolo [4,3-a]quinoxaline]	1000 to 15000
Cc1c[nH]c2c(-c3c(F)cc4c(c3F)-n3c(Cc5ccccn5)nnc3C(C)(C)N4)cccc12 [Example 75, 7,9-Difluoro-4,4-dimethyl-8-(3-methyl-1H-indol-7-yl)-1-(pyridin-2-yl-methyl)-5H-[1,2,4]triazolo[4,3-a]quinoxaline]	< 100
CCc1nnc2n1-c1c(cc(F)c(-c3cc(F)cc4c3cnn4S(C)(=O)=O)c1C)NC2(C)C [Example 348, 1-Ethyl-7-fluoro-8-(6-fluoro-1-methylsulfonyl-1H-indazol-4-yl)-4,4,9-trimethyl-5H-[1,2,4]triazolo [4,3-a]quinoxaline]	1000 to 15000
Cc1cc(-c2c(Cl)cc3c(c2C)-n2c(C)nnc2C(C)(C)N3)c2ccn(S(C)(=O)=O)c2c1 [Example 491, 7-Chloro-1,4,4,9-tetramethyl-8-(6-methyl-1-methylsulfonyl-1H-indol-4-yl)-5H-[1,2,4]triazolo[4,3-a] quinoxaline]	< 100
COc1c(-c2cccc3[nH]ccc23)c(F)cc2c1-n1c(C)nnc1C(C)(C)N2 [Example 286, 7-Fluoro-8-(1H-indol-4-yl)-9-methoxy-1,4,4-trimethyl-5H-[1,2,4]triazolo[4,3-a]quinoxaline]	100 to 1000

Source: patent publication US12110293B2, “Substituted triazolo quinoxaline derivatives” (GRÜNENTHAL GMBH, priority 2018, dated 2024)
